What all share (format): functional
One assay deals with T1, Protein RecA (Mycobacterium tuberculosis, UniProt P9WHJ3).
T1 sequence (P9WHJ3 whole entry): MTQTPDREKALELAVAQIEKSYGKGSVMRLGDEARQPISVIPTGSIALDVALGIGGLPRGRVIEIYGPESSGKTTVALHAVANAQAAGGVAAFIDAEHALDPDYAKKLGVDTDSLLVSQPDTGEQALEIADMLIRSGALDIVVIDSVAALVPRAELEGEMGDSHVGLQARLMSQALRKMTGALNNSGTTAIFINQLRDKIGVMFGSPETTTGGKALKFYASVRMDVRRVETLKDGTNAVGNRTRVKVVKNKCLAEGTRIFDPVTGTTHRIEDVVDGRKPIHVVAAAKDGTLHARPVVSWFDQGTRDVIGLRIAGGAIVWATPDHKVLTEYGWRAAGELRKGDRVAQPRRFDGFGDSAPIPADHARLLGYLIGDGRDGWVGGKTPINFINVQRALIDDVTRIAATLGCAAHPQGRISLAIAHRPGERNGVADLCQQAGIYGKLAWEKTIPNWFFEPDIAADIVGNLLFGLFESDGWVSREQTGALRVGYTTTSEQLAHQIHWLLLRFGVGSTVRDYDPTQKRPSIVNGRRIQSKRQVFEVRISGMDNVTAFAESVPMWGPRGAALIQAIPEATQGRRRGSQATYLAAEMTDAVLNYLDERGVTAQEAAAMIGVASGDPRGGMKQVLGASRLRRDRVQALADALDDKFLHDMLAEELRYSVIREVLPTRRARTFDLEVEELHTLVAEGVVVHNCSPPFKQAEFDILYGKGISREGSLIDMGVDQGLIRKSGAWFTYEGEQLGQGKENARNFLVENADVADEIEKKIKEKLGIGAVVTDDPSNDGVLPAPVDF
Kind of assay: Fluorescence Cell-Free Homogeneous Dose Retest to Identify Inhibitors of RecA-Intein Splicing Activity. [Related pubchem assays (depositor defined):AID2097, AID2223, AID489010, AID492950].

A further assay deals with T2, Caspase-3 (Homo sapiens, UniProt P42574).
T2 sequence (P42574 whole entry): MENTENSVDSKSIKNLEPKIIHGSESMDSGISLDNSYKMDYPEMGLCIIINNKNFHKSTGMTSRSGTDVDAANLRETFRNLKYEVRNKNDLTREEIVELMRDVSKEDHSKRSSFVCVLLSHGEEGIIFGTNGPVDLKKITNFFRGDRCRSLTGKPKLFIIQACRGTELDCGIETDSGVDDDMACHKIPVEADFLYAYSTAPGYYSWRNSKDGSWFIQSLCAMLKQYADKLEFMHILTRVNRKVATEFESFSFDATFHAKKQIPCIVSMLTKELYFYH

The target of assay [1] is T3, Sentrin-specific protease 6 (Homo sapiens, UniProt Q9GZR1).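 Further: Luminescence-based dose-response confirmatory assay of SENP6 inhibition, following up an ultra-high-throughput screen.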
T3 sequence (Q9GZR1 whole entry): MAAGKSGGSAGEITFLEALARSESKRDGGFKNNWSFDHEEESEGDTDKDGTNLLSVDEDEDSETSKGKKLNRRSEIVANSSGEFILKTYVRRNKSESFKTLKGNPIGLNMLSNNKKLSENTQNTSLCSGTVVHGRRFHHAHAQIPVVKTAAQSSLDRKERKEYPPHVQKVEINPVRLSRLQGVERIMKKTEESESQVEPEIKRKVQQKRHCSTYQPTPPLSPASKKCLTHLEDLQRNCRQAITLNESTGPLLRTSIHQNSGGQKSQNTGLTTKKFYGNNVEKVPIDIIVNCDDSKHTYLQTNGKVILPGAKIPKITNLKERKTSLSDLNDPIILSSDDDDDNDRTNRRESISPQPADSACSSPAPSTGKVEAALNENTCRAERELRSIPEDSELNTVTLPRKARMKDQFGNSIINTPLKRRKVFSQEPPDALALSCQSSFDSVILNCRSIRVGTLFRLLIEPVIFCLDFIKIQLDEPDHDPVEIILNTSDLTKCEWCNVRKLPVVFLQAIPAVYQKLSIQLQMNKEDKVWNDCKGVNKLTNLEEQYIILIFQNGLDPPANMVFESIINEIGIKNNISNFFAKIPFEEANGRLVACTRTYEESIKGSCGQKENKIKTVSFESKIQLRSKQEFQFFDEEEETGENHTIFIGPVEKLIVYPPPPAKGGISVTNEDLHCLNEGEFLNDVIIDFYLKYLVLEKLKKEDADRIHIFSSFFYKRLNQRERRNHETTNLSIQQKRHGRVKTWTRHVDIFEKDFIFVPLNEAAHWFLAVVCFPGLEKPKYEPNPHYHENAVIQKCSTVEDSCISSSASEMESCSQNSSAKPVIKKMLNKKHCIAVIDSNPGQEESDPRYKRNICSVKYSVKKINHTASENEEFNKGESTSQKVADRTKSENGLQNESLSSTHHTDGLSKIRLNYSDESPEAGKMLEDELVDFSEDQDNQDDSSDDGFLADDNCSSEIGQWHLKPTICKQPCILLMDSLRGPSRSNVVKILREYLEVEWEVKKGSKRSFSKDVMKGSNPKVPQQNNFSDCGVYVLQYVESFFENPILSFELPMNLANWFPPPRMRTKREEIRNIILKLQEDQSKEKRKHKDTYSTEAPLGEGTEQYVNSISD

Assay [2] has as its target T4, Sentrin-specific protease 8 (Homo sapiens, UniProt Q96LD8).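 Further: luminescence read-out of SENP8 inhibition, dose-response confirmation following an ultra-high-throughput screen.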
T4 sequence (Q96LD8 whole entry): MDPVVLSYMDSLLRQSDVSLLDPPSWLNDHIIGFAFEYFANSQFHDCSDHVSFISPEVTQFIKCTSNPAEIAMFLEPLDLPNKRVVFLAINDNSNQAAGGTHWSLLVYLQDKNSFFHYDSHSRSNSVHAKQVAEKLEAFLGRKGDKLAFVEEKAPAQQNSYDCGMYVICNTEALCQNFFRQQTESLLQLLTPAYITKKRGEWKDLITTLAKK

This note sets out measurements from ChEMBL document CHEMBL1201862, “PubChem BioAssay data set” (2004).

Active and inactive are the calls of the source. For most assays here, no stated cut-off is given here; in the data, actives have a measured IC50 and inactives only a lower limit. Some results are limits rather than exact numbers.

The term EC50 denotes the concentration giving half of the maximal effect. By IC50 is commonly meant the concentration that inhibits the measured activity by half.

As for `O=C(O)CSc1cc(NS(=O)(=O)c2ccc(Cl)cc2)c2ccccc2c1O`, on Protein RecA, the EC50 is 2.39 µM (active).

For the compound `Oc1ccccc1/C=C/c1noc(-c2ccccc2O)n1`, the values for the IC50 (on Caspase-3; in assay [1]; in assay [2]) were 39.7 µM (active), > 100 µM (inactive) and > 100 µM (inactive), respectively.

As to `Cc1nn(-c2ccccc2)c(Cl)c1CN(C(=O)CCl)c1ccc(Cl)cc1`, at Protein RecA, the concentration giving a half-maximal response (EC50) is 0.355 µM (active).

Consider `Cc1cccc(N=Nc2ccc(N(C)C)cc2)c1`, for which the IC50 on Caspase-3 is 5.57 µM (active); in assay [1], 4.4 µM (active); in assay [2] it was 3.74 µM (active).

For `COc1ccccc1N1C(=O)Cc2ccccc2C1=O`, the IC50 is 4.61 µM (active) on Caspase-3, 10.6 µM (active) in assay [1] and 49.4 µM (active) in assay [2]. The EC50 on Protein RecA is 9.77 µM (active).
